Results as given in publication PMC7250851, “Discovery of a new sialic acid binding region that regulates Siglec-7” (Scientific Reports, 2020).
Entries after “also recorded” stand apart in the source; their conditions may differ.

How the values were obtained:
[1] = test system: T1, Siglec-7V R67A; test: STD-NMR and 1H-NMR titration; format: binding, human; conditions: protein:ligand 1:20, 10 °C, pH 7.9
T1 construct: DNA fragments encoding human Siglec-7 V-set domain (residues 18–144) and the mutants were sub-cloned into the pCold-PDI vector; (His)6-PDI (cleaved yes); made in house; host or cells: Escherichia coli Origami B (DE3)
Experimental: (§1) Recombinant human Siglec-7 V-set domain and its mutants (R67A, R124A, R67K) were prepared using the pCold-PDI vector as previously described with modifications. DNA fragments encoding human Siglec-7 V-set domain (residues 18–144) and the mutants were sub-cloned into the pCold-PDI vector. The plasmids were transformed into Escherichia coli Origami B (DE3) (Novagen), and the cells were grown at 37 °C in LB medium. After induction with isopropyl β-D-thiogalactoside (0.5 mM), the cells were cultured at 15 °C for further 16 h. Then the cells were harvested and sonicated in 20 mM Tris-HCl (pH 8.0), and containing 0.1 M NaCl and 0.1 mM EDTA. After centrifugation, the supernatant containing (His)6-PDI-fused protein was collected and applied to a Ni sepharose column (GE healthcare) equilibrated with 20 mM Tris-HCl (pH 8.0), and containing 0.1 M NaCl. After washing with 20 mM Tris-HCl (pH 8.0) containing 0.1 M NaCl and 20 mM imidazole, the protein was eluted with 20 mM Tris-HCl (pH 8.0) containing 0.1 M NaCl and 500 mM imidazole. The (His)6-PDI-fused protein was extensively dialysed against 50 mM Tris-HCl (pH 8.0) containing 0.1 M NaCl, 5 mM reduced glutathione, 0.5 mM oxidised glutathione, and 10% glycerol. The protein was then digested with TEV protease to remove the (His)6-PDI tag. The digested proteins were passed through the Ni sepharose column and the final purification was performed with a Hiroad Superdex 75 pg size exclusion column (GE healthcare) equilibrated with 20 mM Tris-HCl (pH 8.0) containing 0.1 M NaCl.
(§2) NMR spectra were collected using the DRX-600 (600 MHz) spectrometer (Bruker; Billerica, MA, US) equipped with a TXI-probe. The probe temperature was set at 283 K. Siglec-7 V-set domains (WT, R124A, R67A) were prepared with 10 mM phosphate buffer including 150 mM NaCl in D2O (D: 99%). The final protein concentration before addition of the ligand was 55 μM (pH 7.9). The 5.5 mM diSia and triSia solutions (pH 7.9) in PBS were gradually added into the protein solution to achieve the protein:ligand molar ratios of 1:0, 1:1, 1:2, 1:5, 1:10, and 1:20; the ^1H-NMR spectra were obtained with the WATERGATE pulse sequence in each protein:ligand ratio. Data were collected for 1024 scans by suppressing the residual HDO signal to 3-9-19 pulse train. Saturation Transfer Difference (STD) NMR experiments were performed at the protein:ligand ratio of 1:20. The protein signal was saturated on resonance at 0.15 ppm and off resonance at 40 ppm with a cascade of 60 selective Gaussian shaped pulses of 50 ms duration and 3 s saturation in total. The WATERGATE pulse sequence was used to suppress the residual HDO signal, and a spin-lock filter with a strength of 8 kHz and a duration of 10 ms was applied to suppress protein background signal. All STD NMR experiments were collected for 1024 scans with an inter pulse delay of 100 μs. The Sias signal assignments have been previously described by Jennings et al.[34].

[2] = test system: T2, Siglec-7V WT; test: STD-NMR and 1H-NMR titration; format: binding, human; conditions: protein:ligand 1:20, 10 °C, pH 7.9
T2 construct: DNA fragments encoding human Siglec-7 V-set domain (residues 18–144) and the mutants were sub-cloned into the pCold-PDI vector; (His)6-PDI (cleaved yes); made in house; host or cells: Escherichia coli Origami B (DE3)
Experimental: as §1, §2

[3] = test system: T3, Siglec-7V R124A; test: STD-NMR and 1H-NMR titration; format: binding, human; conditions: protein:ligand 1:20, 10 °C, pH 7.9
T3 construct: DNA fragments encoding human Siglec-7 V-set domain (residues 18–144) and the mutants were sub-cloned into the pCold-PDI vector; (His)6-PDI (cleaved yes); made in house; host or cells: Escherichia coli Origami B (DE3)
Experimental: as §1, §2

[4] = target: T4, GD3-Siglec-7EcFc interaction (Homo sapiens, UniProt Q9Y286); test: Inhibition of GD3-Siglec-7EcFc binding (ELISA, double reciprocal plots); conditions: for Inhibition type: double reciprocal plots
T4 construct: the extracellular domain of Siglec-7 fused with the human IgG1 Fc region; made in house
Experimental: (§3) For ganglioside binding assay, 96-well plates (Nunc, Roskilde, Denmark) were coated with 50 μL/well of 0–6.0 µM ganglioside in ethanol and left to air dry overnight or at 37 °C for 2 h. The wells were washed three times with TBS and blocked with 1% BSA (w/v) in TBS. Siglec-7-Fc fusion protein (64 pmol/mL) was pre-complexed with a 1/1000 dilution of horseradish peroxidase-conjugated goat anti-human IgG + M + A (American Qualex) for 30 min at room temperature, and 50 μL of reaction mixture was added to each well. After 2 h incubation at room temperature, the wells were washed extensively, then 100 µL of 0.05% o-phenylenediamine in 0.1 M Tris-HCl (pH 6.8) containing 0.006% H2O2 was added and incubated at room temperature. The absorbance was then measured at 490 nm (Bio-Rad, Hercules, CA) after the addition of 100 µL of 2 N sulphuric acid. For measurement of the inhibition toward GD3-Siglec-7 interaction, inhibitors (0–200 μM for octyl-α2,8-mono/di/tri/teraSia, 0–50 μM for tetradecyl-ganglioside glycan), Siglec-7, and peroxidase conjugated anti-human IgG + IgM + IgA were pre-incubated at 25 °C for 30 min, and the reaction mixture with or without inhibitor was used as described above. All experiments were performed three times.

[5] = test system: T5, Siglec-7EcFc (R67K); test: ELISA binding of Siglec-7EcFc to immobilised gangliosides / (Neu5Ac)n-PE; parameters: species or system human; conditions: ligand coated on plastic wells, compared with WT
T5 construct: the extracellular domain of Siglec-7 fused with the human IgG1 Fc region; made in house
Experimental: as §3

[6] = test system: T6, Siglec-7EcFc (R92A); test: as above; parameters: species or system human; conditions: ligand coated on plastic wells, compared with WT
T6 construct: the extracellular domain of Siglec-7 fused with the human IgG1 Fc region; made in house
Experimental: as §3

[7] = test system: T7, Siglec-7EcFc (R92K); test: as above; parameters: species or system human; conditions: ligand coated on plastic wells, compared with WT
T7 construct: the extracellular domain of Siglec-7 fused with the human IgG1 Fc region; made in house
Experimental: as §3

[8] = test system: T8, Siglec-7EcFc (R67A); test: as above; parameters: species or system human; conditions: ligand coated on plastic wells, compared with WT
T8 construct: the extracellular domain of Siglec-7 fused with the human IgG1 Fc region; made in house
Experimental: as §3

[9] = test system: T9, Siglec-7EcFc (WT); test: as above; parameters: species or system human; conditions: ligand coated on plastic wells
T9 construct: the extracellular domain of Siglec-7 fused with the human IgG1 Fc region; made in house
Experimental: as §3

T4 sequence (Q9Y286 19-353 limits assumed): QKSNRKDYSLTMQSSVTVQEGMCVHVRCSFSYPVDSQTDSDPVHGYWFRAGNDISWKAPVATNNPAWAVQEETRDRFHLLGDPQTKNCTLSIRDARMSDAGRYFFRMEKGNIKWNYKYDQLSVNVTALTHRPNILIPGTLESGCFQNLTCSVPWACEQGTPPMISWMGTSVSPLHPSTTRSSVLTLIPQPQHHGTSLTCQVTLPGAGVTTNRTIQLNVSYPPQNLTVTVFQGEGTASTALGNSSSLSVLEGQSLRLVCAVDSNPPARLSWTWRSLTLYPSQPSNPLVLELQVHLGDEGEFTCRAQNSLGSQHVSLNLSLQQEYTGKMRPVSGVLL

Molecule: CC(=O)NC1C(O)CC(OC(CO)C(O)C2OC(O)(C(=O)O)CC(O)C2NC(C)=O)(C(=O)O)OC1C(O)C(O)CO (stereo not shown) [diSia, Neu5Acα(2-8)Neu5Ac-OH]
- binding in solution (STD-NMR) [1]: obviously recognised
- binding in solution (STD-NMR) [2]: obviously recognised
- binding in solution (STD-NMR) [3]: very little or no interactions

Molecule: CC(=O)NC1C(O)CC(OC(CO)C(O)C2OC(OC(CO)C(O)C3OC(O)(C(=O)O)CC(O)C3NC(C)=O)(C(=O)O)CC(O)C2NC(C)=O)(C(=O)O)OC1C(O)C(O)CO (stereo not shown) [triSia, Neu5Acα(2-8)Neu5Acα(2-8)Neu5Ac-OH]
- binding in solution (STD-NMR) [1]: involved in binding
- binding in solution (STD-NMR) [2]: involved in binding
- binding in solution (STD-NMR) [3]: very little or no interactions

Molecule: CCCCCCCCOC1(C(=O)O)CC(O)C(NC(C)=O)C(C(O)C(CO)OC2(C(=O)O)CC(O)C(NC(C)=O)C(C(O)C(O)CO)O2)O1 (stereo not drawn) [α2,8-diSia]
- Inhibition type [4]: competitive inhibition
- inhibition activity toward Siglec-7EcFc-GD3 interaction ([4]; octyl glycosides, 0–200 μM): the effect was weak

Molecule: CCCCCCCCOC1(C(=O)O)CC(O)C(NC(C)=O)C(C(O)C(CO)OC2(C(=O)O)CC(O)C(NC(C)=O)C(C(O)C(CO)OC3(C(=O)O)CC(O)C(NC(C)=O)C(C(O)C(O)CO)O3)O2)O1 (stereo not drawn) [α2,8-triSia]
- Inhibition type [4]: non-competitive inhibition
- IC50 ([4]; octyl glycosides, 0–200 μM, GD3-coated plate): < 100 µM

Molecule: Neu5Acα2 → 8Neu5Aα2 → 3Galβ1 → 4Glc-Cer [GD3]
- binding activity (ELISA) [5]: significantly lower binding activity
- binding activity (ELISA) [6]: almost the same binding activity
- binding activity (ELISA) [7]: almost the same binding activity
- binding activity (ELISA) [8]: significantly lower binding activity; also recorded: did not effectively bind
- binding activity (ELISA) [9]: higher binding activity

Molecule: Neu5Aα2 → 3Galβ1 → 4Glc-Cer [GM3]
- binding activity (ELISA) [9]: Almost no binding activity
